Reference: patent publication US20200383985A1, “Inhibitors of Protease Activated Receptor-2” (Endosome Therapeutics, Inc., priority 2017, published 2020)
pIC50: −log10 of the molar value. Where two headings read alike, the source gives them in different places.

How the values were obtained:
Type in all cases: cell-based
human (h) PAR2 = molecular target: T1, human (h) PAR2 (Homo sapiens, UniProt P55085); test: IP1 accumulation assay in KNRK-hPAR2 cells; details: for inhibition at 30 µM: 100 nM 2F, 30 μM of antagonist, read-out: KNRK-PAR2 100 nM 2F: ND (inhibition of 2F at 30 μM of antagonist); for IC50: 2F (100 nM)-induced IP1, KNRK-hPAR2 cells, read-out: KNRK-PAR2 100 nM 2F pIC50 ± SEM (converted)
T1 construct: expressed in transfected cells; host or cells: KNRK cells (KNRK-hPAR2)
T1 sequence (P55085 26-397): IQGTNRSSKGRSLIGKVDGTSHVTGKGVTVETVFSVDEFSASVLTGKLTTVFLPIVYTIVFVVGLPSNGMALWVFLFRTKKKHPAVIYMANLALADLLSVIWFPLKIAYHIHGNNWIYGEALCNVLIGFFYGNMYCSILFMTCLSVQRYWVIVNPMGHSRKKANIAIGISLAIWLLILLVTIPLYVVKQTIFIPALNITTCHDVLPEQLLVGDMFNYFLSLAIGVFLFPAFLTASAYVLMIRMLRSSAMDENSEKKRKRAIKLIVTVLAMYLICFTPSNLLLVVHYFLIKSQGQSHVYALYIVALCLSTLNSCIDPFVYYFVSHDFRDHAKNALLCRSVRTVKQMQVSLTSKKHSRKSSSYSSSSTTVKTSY
Procedure: (§1) KNRK-hPAR2, KNRK or HT-29 cells were seeded at a density of 50×10^3 cells/well in a clear poly-d-lysine coated 96 well tissue culture plate. Following 24 h incubation at 37° C. and 5% CO2, media was removed and replaced with 80 μl IP1 stimulation buffer (10 mM HEPES, 1 mM CaCl2, 0.5 mM MgCl2, 4.2 mM KCl, 146 mM NaCl, 5.5 mM glucose, 50 mM LiCl). Following stimulation buffer addition, the wells received 10 μl of 10× antagonists or DMSO vehicle. All plates were further incubated at 37° C., 5% CO2 for 30 min. 10 μl of 2F or ATP was added to the plates and further incubated for 40 min. Following incubation, stimulation buffer was quickly removed by aspiration and replaced with 25 μl lysis buffer (IP-One HTRF® assay kit, Cisbio). Following incubation of the lysates at 37° C., 5% CO2 for 10′, 10 μl lysate was transferred to a 384-well OptiPlate (PerkinElmer) and detected using the IP-One HTRF® assay kit (Cisbio).
(§2) Compounds of the invention (added at 10×concentrations in a 10 μL volume) were incubated for 30 min prior to the addition of 10 μM ATP or 100 nM or 300 nM PAR2 agonist (2F; EC80, added at 10×concentrations in a 10 μL volume) and then further incubated for 40 min. After lysis, the inositol phosphate 1 was quantified with IP-One HTRF® assay kit, Cisbio. The data was analysed with Prism, GraphPad to calculate the IC50 values, shown below in Table 1.
(§3) Inhibition of PAR2 signaling with known PAR2 inhibitor I-343 (FIG. 14A) was investigated in HT-29 cells and HEK293 cells, which express endogenous PAR2, and in KNRK cells expressing human (h) PAR2. Accumulation of inositol phosphate-1 (IP1) was measured in response to the PAR2-selective agonist 2-Furoyl-LIGRLO-NH2 (2F), an analogue of the trypsin-exposed tethered ligand, or trypsin.
(§4) KNRK-hPAR2, KNRK, HEK293, or HT-29 cells were seeded at a density of 50×10^3 cells/well onto clear 96-well plates (PerkinElmer). After 24 h of culture, medium was replaced with IP1 stimulation buffer (10 mM HEPES, 1 mM CaCl2, 0.5 mM MgCl2, 4.2 mM KCl, 146 mM NaCl, 5.5 mM glucose, 50 mM LiCl; 37° C., 5% CO2.). Cells were pre-incubated with the antagonist or vehicle for 30 min prior to the addition of agonist. Cells were then further incubated for 40 min. Stimulation buffer was […]

PAR2 = molecular target: T2, PAR2 (Homo sapiens, UniProt P55085); test: IP1 accumulation assay in HT-29 cells (endogenous PAR2); details: 2F (300 nM)-induced IP1, HT-29 cells; for pIC50: read-out: HT-29 300 nM 2F (IC50); for IC50: read-out: HT-29 300 nM 2F pIC50 ± SEM (converted)
T2 construct: HT-29 cells and HEK293 cells, which express endogenous PAR2; endogenous in cells; host or cells: HT-29
T2 sequence (P55085 26-397): T1 sequence (P55085 26-397)
Procedure: as §1, §2, §3, §4

mouse DRG neurons = test: Patch clamp rheobase of DRG neurons: protease-induced hyperexcitability of nociceptors

Compound	inhibition at 30 µM (human (h) PAR2)	pIC50 (PAR2)	IC50 (PAR2)	further results
CC(C)CCC[C@@H](C)[C@H]1CCC2C3CCC4C[C@@H](OC(=O)C[C@H](NC(=O)CCOCCOCCOCCOCCOCCOCCOCCOCCNC(=O)CCCNC(=O)Cn5cc(C(=O)N6CCN(C(=O)c7cn8nc(-c9ccc(F)cc9)cc(C(C)(C)C)c8n7)C(C)(C)C6)nn5)C(N)=O)CC[C@]4(C)C3CC[C@@]21C (stereo partly drawn) [Compound 13, (3S,10S,13R,17R)-10,13-dimethyl-17-((R)-6-methylheptan-2-yl)hexadecahydro-1H-cyclopenta[a]phenanthren-3-yl (37S)-1-(4-(4-(8-(tert-butyl)-6-(4-fluorophenyl)imidazo[1,2-b]pyridazine-2-carbonyl)-3,3-dimethylpiperazine-1-carbonyl)-1H-1,2,3-triazol-1-yl)-37-carbamoyl-2,7,35-trioxo-11,14,17,20,23,26,29,32-octaoxa-3,8,36-triazanonatriacontan-39-oate]	< 50%	6.13		
CC(C)(C)c1cc(-c2ccc(F)cc2)nn2cc(C(=O)N3CCN(C(=O)[C@H]4CC[C@@H](NC(=O)[C@H](O)[C@@H](O)[C@@H](O)[C@H](O)C(N)=O)CC4)CC3(C)C)nc12 [Compound 7, (2R,3S,4R,5S)—N1-((1s,4S)-4-(4-(8-(tert-butyl)-6-(4-fluorophenyl)imidazo[1,2-b]pyridazine-2-carbonyl)-3,3-dimethylpiperazine-1-carbonyl)cyclohexyl)-2,3,4,5-tetrahydroxyhexanediamide]	< 50%	6.39	406 nM	
CN(C)CCCn1cc(C2=C(c3c[nH]c4ccccc34)C(=O)NC2=O)c2ccccc21 [GF109203X]				initial trypsin-induced hyperexcitability (mouse DRG neurons): prevented; persistent trypsin-induced hyperexcitability (mouse DRG neurons): not
CC(C)(C)c1cc(-c2ccc(F)cc2)nn2cc(C(=O)N3CCN(C(=O)c4cn(CC(=O)O)nn4)CC3(C)C)nc12 [Compound 2, 2-(4-(4-(8-(tert-butyl)-6-(4-fluorophenyl)imidazo[1,2-b]pyridazine-2-carbonyl)-3,3-dimethylpiperazine-1-carbonyl)-1H-1,2,3-triazol-1-yl)acetic acid]	< 50%	6.85	138 nM	
thrombin				rheobase after protease (mouse DRG neurons; trypsin 50 nM 10 min, NE 390 nM 30 min, CS 500 nM 60 min, thrombin 50 nM 20 min, washed): immediate decrease in rheobase
CC(C)c1ccc(Cn2ccc3c4c(N)nc(NC5CC5)nc4ccc32)cc1 [SCH79797]				rheobase response to trypsin (PAR1 antagonist) (mouse DRG neurons; 1 μM): did not affect; rheobase, antagonist alone (mouse DRG neurons; 1 μM): no effect; thrombin-induced immediate decrease in rheobase (mouse DRG neurons; thrombin 50 nM, 20 min, antagonist 1 μM, 10 min preincubation): prevented
COC(=O)C12CCC(C(=O)N3CCN(C(=O)c4cn5nc(-c6ccc(F)cc6)cc(C(C)(C)C)c5n4)C(C)(C)C3)(CC1)CC2 [Compound 8, methyl 4-(4-(8-(tert-butyl)-6-(4-fluorophenyl)imidazo[1,2-b]pyridazine-2-carbonyl)-3,3-dimethylpiperazine-1-carbonyl)bicyclo[2.2.2]octane-1-carboxylate]			42.7 nM	IC50 (human (h) PAR2): > 10000 nM
CC(C)(C)c1cc(-c2ccc(F)cc2)nn2cc(C(=O)N3CCN(C(=O)[C@H]4CC[C@@H](C(=O)NC[C@H](O)[C@@H](O)[C@H](O)[C@H](O)CO)CC4)CC3(C)C)nc12 [Compound 3, (1S,4R)-4-(4-(8-(tert-butyl)-6-(4-fluorophenyl)imidazo[1,2-b]pyridazine-2-carbonyl)-3,3-dimethylpiperazine-1-carbonyl)-N-((2S,3R,4R,5R)-2,3,4,5,6-pentahydroxyhexyl)cyclohexane-1-carboxamide]		7.40	40.7 nM	IC50 (human (h) PAR2): > 10000 nM
CC(C)CCC[C@@H](C)[C@H]1CC[C@H]2[C@@H]3CC[C@@H]4C[C@@H](OC(=O)C[C@H](NC(=O)CCOCCOCCOCCOCCOCCOCCNC(=O)[C@@H](O)[C@H](O)[C@H](O)[C@@H](O)C(=O)NC5CCC(C(=O)N6CCN(C(=O)c7cn8nc(-c9ccc(F)cc9)cc(C(C)(C)C)c8n7)C(C)(C)C6)CC5)C(N)=O)CC[C@]4(C)[C@H]3CC[C@]12C (stereo partly drawn) [Compound 16, (3S,5R,8R,9S,10S,13R,14S,17R)-10,13-dimethyl-17-((R)-6-methylheptan-2-yl)hexadecahydro-1H-cyclopenta[a]phenanthren-3-yl (3S,28S,29R,30S,31R)-32-((4-(4-(8-(tert-butyl)-6-(4-fluorophenyl)imidazo[1,2-b]pyridazine-2-carbonyl)-3,3-dimethylpiperazine-1-carbonyl)cyclohexyl)amino)-3-carbamoyl-28,29,30,31-tetrahydroxy-5,27,32-trioxo-8,11,14,17,20,23-hexaoxa-4,26-diazadotriacontanoate]	< 50%	5.68		
CC(C)(C)c1cc(-c2ccc(F)cc2)nn2cc(C(=O)N3CCN(C(=O)c4cn(CC(=O)NCCOCCOCCO)nn4)CC3(C)C)nc12 [Compound 5, 2-(4-(4-(8-(tert-butyl)-6-(4-fluorophenyl)imidazo[1,2-b]pyridazine-2-carbonyl)-3,3-dimethylpiperazine-1-carbonyl)-1H-1,2,3-triazol-1-yl)-N-(2-(2-(2-hydroxyethoxy)ethoxy)ethyl)acetamide]	< 50%		180 nM	
CC(C)CCC[C@@H](C)[C@H]1CC[C@H]2[C@@H]3CC=C4C[C@@H](OC(=O)NCCCC[C@@H](NC(=O)CCOCCOCCOCCOCCOCCOCCOCCOCCOCCOCCOCCOCCNC(=O)Cn5cc(C(=O)N6CCN(C(=O)c7cn8nc(-c9ccc(F)cc9)cc(C(C)(C)C)c8n7)C(C)(C)C6)nn5)C(=O)NN)CC[C@]4(C)[C@H]3CC[C@]12C [Compound 17]	< 50%	5.25		
CC(C)CCC[C@@H](C)[C@H]1CCC2C3CCC4C[C@@H](OC(=O)C[C@H](NC(=O)CCOCCOCCOCCOCCOCCOCCOCCOCCNC(=O)Cn5cc(C(=O)N6CCN(C(=O)c7cn8nc(-c9ccc(F)cc9)cc(C(C)(C)C)c8n7)C(C)(C)C6)nn5)C(N)=O)CC[C@]4(C)C3CC[C@@]21C (stereo partly drawn) [Compound 12, (3S,10S,13R,17R)-10,13-dimethyl-17-((R)-6-methylheptan-2-yl)hexadecahydro-1H-cyclopenta[a]phenanthren-3-yl (32S)-1-(4-(4-(8-(tert-butyl)-6-(4-fluorophenyl)imidazo[1,2-b]pyridazine-2-carbonyl)-3,3-dimethylpiperazine-1-carbonyl)-1H-1,2,3-triazol-1-yl)-32-carbamoyl-2,30-dioxo-6,9,12,15,18,21,24,27-octaoxa-3,31-diazatetratriacontan-34-oate]	< 50%	6.08		
CC(C)CCC[C@@H](C)[C@H]1CCC2C3CCC4C[C@@H](OC(=O)C[C@H](NC(=O)CCOCCOCCNC(=O)Cn5cc(C(=O)N6CCN(C(=O)c7cn8nc(-c9ccc(F)cc9)cc(C(C)(C)C)c8n7)C(C)(C)C6)nn5)C(N)=O)CC[C@]4(C)C3CC[C@@]21C (stereo partly drawn) [Compound 9, (3S,10S,13R,17R)-10,13-dimethyl-17-((R)-6-methylheptan-2-yl)hexadecahydro-1H-cyclopenta[a]phenanthren-3-yl (14S)-1-(4-(4-(8-(tert-butyl)-6-(4-fluorophenyl)imidazo[1,2-b]pyridazine-2-carbonyl)-3,3-dimethylpiperazine-1-carbonyl)-1H-1,2,3-triazol-1-yl)-14-carbamoyl-2,12-dioxo-6,9-dioxa-3,13-diazahexadecan-16-oate]	< 50%	6.15		
